Literature values in US10098922B1, “Increasing telomere length in a cell” (priority 2017, dated 2018).

What was measured:
[1] = test system: rats; conditions: AC-11 80 mg/kg plus doxorubicin vs doxorubicin only
[2] = test system: doxorubicin-induced leukopenia; conditions: rats, oral by gavage

| SMILES | Mean heart weight coefficient [1] | Reversal of doxorubicin-induced leukopenia [2] |
| --- | --- | --- |
| COc1cccc2c1C(=O)c1c(O)c3c(c(O)c1C2=O)C[C@@](O)(C(=O)CO)C[C@@H]3O[C@H]1C[C@H](N)[C@H](O)[C@H](C)O1 [doxorubicin] | 0.369%±0.022 |  |
| N.O=C(O)C1(O)CC(O)C(O)C(O)C1 (stereo not drawn) [QAA] |  | about as effective as C-MED-100® |
| O=C(O)[C@]1(O)C[C@@H](O)[C@@H](O)[C@H](O)C1 [QA, quinic acid] |  | about as effective as C-MED-100® |
